Where two headings read alike, the source gives them in different places.
How the values were obtained:
KRAS-G12V = KRAS-G12V (Homo sapiens, UniProt P01116, G12V); test: SOS-catalyzed nucleotide exchange assay (Procedure A, TR-FRET), KRAS-G12V; format: biochemical
Outline: (§1)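 Signal ratio (520/495 nm, excitation 340 nm) reports Bodipy-GDP retention on biotinylated RAS after SOS-catalyzed exchange with 3 mM GTP. SOS was 40 nM, except 160 nM for G12V. Room-temperature exchange lasted 60 min (90 min for G12V), following a 60 min compound preincubation.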

KRAS-WT = KRAS-WT (Homo sapiens, UniProt P01116); test: SOS-catalyzed nucleotide exchange assay (Procedure A, TR-FRET), KRAS-WT; format: biochemical
Sequence of KRAS-WT (P01116 with tags, fused parts or gaps isoform P01116-2): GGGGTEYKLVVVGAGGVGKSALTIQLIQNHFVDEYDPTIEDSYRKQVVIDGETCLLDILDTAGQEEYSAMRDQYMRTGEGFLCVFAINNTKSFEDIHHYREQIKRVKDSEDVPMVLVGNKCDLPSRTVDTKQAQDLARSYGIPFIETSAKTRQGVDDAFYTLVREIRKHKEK
Outline: as §1

KRAS-G12D = KRAS-G12D (Homo sapiens, UniProt P01116, G12D); test: SOS-catalyzed nucleotide exchange assay (Procedure A, TR-FRET), KRAS-G12D; format: biochemical
Sequence of KRAS-G12D (P01116 with tags, fused parts or gaps isoform P01116-2 G12D): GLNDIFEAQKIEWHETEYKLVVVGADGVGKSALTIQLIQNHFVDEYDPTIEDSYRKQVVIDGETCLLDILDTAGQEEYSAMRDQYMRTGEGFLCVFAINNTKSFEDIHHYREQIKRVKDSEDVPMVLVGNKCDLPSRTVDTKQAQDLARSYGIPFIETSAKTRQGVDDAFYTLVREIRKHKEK
Outline: as §1

AsPC-1 cells = test: Cellular phospho-ERK assay, AsPC-1 cells (homozygous KRAS-G12D); format: cell-based; settings: Homo sapiens, read-out: AsPC1 pERK IC50
Outline: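 ERK phosphorylation relative to total ERK is the endpoint, detected by AlphaScreen-based SureFire multiplex following a 2-hour treatment at 37 °C. Compounds are titrated 1:3 over ten points from 30 μM.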

[1] = nucleotide exchange, read-out: KRAS G12V GNE IC50
[2] = nucleotide exchange, read-out: KRAS WT GNE IC50
[3] = nucleotide exchange, read-out: KRAS G12D GNE IC50
[4] = ASPC1, 2 h, 2 hours compound incubation

Sequence of KRAS-G12V (P01116 with tags, fused parts or gaps isoform P01116-2 G12V): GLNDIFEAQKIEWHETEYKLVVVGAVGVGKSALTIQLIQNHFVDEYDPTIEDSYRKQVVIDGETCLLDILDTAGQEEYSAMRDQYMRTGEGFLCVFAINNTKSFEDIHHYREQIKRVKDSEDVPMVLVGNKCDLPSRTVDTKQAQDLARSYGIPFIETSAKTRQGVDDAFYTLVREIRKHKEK

| Compound | IC50 (KRAS-G12V; [1]) [nM] | IC50 (KRAS-WT; [2]) [nM] | IC50 (KRAS-G12D; [3]) [nM] | IC50 (AsPC-1 cells; [4]) [nM] | IC50 (KRAS-G12V; KRAS G12V GNE IC50, nucleotide exchange) [nM] | IC50 (KRAS-WT; KRAS WT GNE IC50, nucleotide exchange) [nM] | IC50 (KRAS-G12D; KRAS G12D GNE IC50, nucleotide exchange) [nM] | IC50 (AsPC-1 cells; ASPC1, 2 hours compound incubation) [nM] |
| --- | --- | --- | --- | --- | --- | --- | --- | --- |
| C[C@@]1(O)COCCN(c2nc(OC[C@]3(CN4CC5(CC5)C4)CC3(F)F)nc3sc4c(-c5c(C6(F)CC6)c(Cl)cc6[nH]ncc56)nccc4c23)C1 [Ex-250, (6S)-4-(2-(((R)-1-((5-azaspiro[2.3]hexan-5-yl)methyl)-2,2-difluorocyclopropyl)methoxy)-8-(6-chloro-5-(1-fluorocyclopropyl)-1H-indazol-4-yl)pyrido[4′,3′:4,5]thieno[2,3-d]pyrimidin-4-yl)-6-methyl-1,4-oxazepan-6-ol] | 18.6 | 36.2 | 8.56 | 152 | – | – | – | – |
| C[C@@]1(O)COCCN(c2nc(OC[C@]3(CN4[C@@H]5CC[C@H]4C[C@H](F)C5)CC3(F)F)nc3sc4c(-c5c(C6(F)CC6)c(Cl)cc6[nH]ncc56)nccc4c23)C1 [Ex-251, (6S)-4-(8-(6-chloro-5-(1-fluorocyclopropyl)-1H-indazol-4-yl)-2-(((R)-2,2-difluoro-1-(((1R,3S,5S)-3-fluoro-8-azabicyclo[3.2.1]octan-8-yl)methyl)cyclopropyl)metho-xy)pyrido[4′,3′:4,5]thieno[2,3-d]pyrimidin-4-yl)-6-methyl-1,4-oxazepan-6-ol] | 110 | 489 | 53 | 670 | – | – | – | – |
| C[C@@]1(O)COCCN(c2nc(OC[C@]3(CN4C[C@@H]5CCCO[C@H]5C4)CC3(F)F)nc3sc4c(-c5c(C6(F)CC6)c(Cl)cc6[nH]ncc56)nccc4c23)C1 [Ex-252, (6S)-4-(8-(6-chloro-5-(1-fluorocyclopropyl)-1H-indazol-4-yl)-2-(((R)-2,2-difluoro-1-(((4aS,7aR)-hexahydropyrano[2,3-c]pyrrol-6(2H)-yl)methyl)cyclopropyl)methoxy)pyrido[4′,3′:4,5]thieno[2,3-d]pyrimidin-4-yl)-6-methyl-1,4-oxazepan-6-ol] | 32.2 | 57.8 | 4.96 | 232 | – | – | – | – |
| C[C@@]1(O)COCCN(c2nc(OC[C@]3(CN4C[C@H]5CCO[C@H]5C4)CC3(F)F)nc3sc4c(-c5c(C6(F)CC6)c(Cl)cc6[nH]ncc56)nccc4c23)C1 [Ex-254, (6S)-4-(8-(6-chloro-5-(1-fluorocyclopropyl)-1H-indazol-4-yl)-2-(((R)-2,2-difluoro-1-(((3aR,6aR)-hexahydro-5H-furo[2,3-c]pyrrol-5-yl)methyl)cyclopropyl)metho-xy)pyrido[4′,3′:4,5]thieno[2,3-d]pyrimidin-4-yl)-6-methyl-1,4-oxazepan-6-ol] | 91.9 | 59.7 | 6.96 | 315 | – | – | – | – |
| C[C@@]1(O)COCCN(c2nc(OC[C@]3(CN4CC5(CCC5)C4)CC3(F)F)nc3sc4c(-c5c(C6(F)CC6)c(Cl)cc6[nH]ncc56)nccc4c23)C1 [Ex-256, (6S)-4-(2-(((R)-1-((2-azaspiro[3.3]heptan-2-yl)methyl)-2,2-difluorocyclopropyl)methoxy)-8-(6-chloro-5-(1-fluorocyclopropyl)-1H-indazol-4-yl)pyrido[4′,3′:4,5]thieno[2,3-d]pyrimidin-4-yl)-6-methyl-1,4-oxazepam-6-ol] | – | – | – | – | 11.1 | 16.5 | 4.41 | 126 |
| C[C@@]1(O)COCCN(c2nc(OC[C@]3(CN4C[C@H]5C[C@@H]4CO5)CC3(F)F)nc3sc4c(-c5c(C6(F)CC6)c(Cl)cc6[nH]ncc56)nccc4c23)C1 [Ex-257, (6S)-4-(2-(((R)-1-(((1R,4R)-2-oxa-5-azabicyclo[2.2.1]heptan-5-yl)methyl)-2,2-difluorocyclopropyl)methoxy)-8-(6-chloro-5-(1-fluorocyclopropyl)-1H-indazol-4-yl)pyrido[4′,3′:4,5]thieno[2,3-d]pyrimidin-4-yl)-6-methyl-1,4-oxazepan-6-ol] | 28.7 | 42.5 | 4.42 | 144 | – | – | – | – |

Reference: patent publication US20260176289A1, “SMALL MOLECULE INHIBITORS OF KRAS PROTEINS” (Merck Sharp & Dohme LLC, priority 2022, published 2026)
